Measured values as given in patent publication US10759803B2, “Asparagine endopeptidase (AEP) inhibitors for managing cancer and compositions related thereto” (priority 2014, dated 2020).

Experiments:
[1] = BBB-PAMPA permeability assay; format: in vitro ADME
[2] = biological target: CYP3A4 (Homo sapiens, UniProt P08684); assay: CYP inhibition screening, CYP3A4-Midazolam; format: in vitro ADME
[3] = system: CYP3A; assay: CYP inhibition screening, CYP3A-Testosterone; format: in vitro ADME
[4] = biological target: CYP2C9 (Homo sapiens, UniProt P11712); assay: CYP inhibition screening, CYP2C9; format: in vitro ADME
Chain of CYP2C9 (P11712 whole entry): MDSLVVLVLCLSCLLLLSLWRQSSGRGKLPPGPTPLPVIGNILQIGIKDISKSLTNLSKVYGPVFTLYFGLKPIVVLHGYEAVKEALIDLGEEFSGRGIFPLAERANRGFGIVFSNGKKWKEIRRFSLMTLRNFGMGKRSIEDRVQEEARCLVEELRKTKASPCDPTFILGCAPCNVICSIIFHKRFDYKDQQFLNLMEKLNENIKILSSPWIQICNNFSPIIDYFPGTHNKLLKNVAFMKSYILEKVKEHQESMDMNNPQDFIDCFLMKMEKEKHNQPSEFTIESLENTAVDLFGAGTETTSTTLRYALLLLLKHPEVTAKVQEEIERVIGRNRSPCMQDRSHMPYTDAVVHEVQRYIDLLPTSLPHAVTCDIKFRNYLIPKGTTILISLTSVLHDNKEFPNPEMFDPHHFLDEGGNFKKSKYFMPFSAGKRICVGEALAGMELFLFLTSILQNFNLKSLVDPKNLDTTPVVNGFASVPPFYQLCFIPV

[5] = biological target: CYP2D6 (Homo sapiens, UniProt P10635); assay: CYP inhibition screening, CYP2D6; format: in vitro ADME
Chain of CYP2D6 (P10635 whole entry): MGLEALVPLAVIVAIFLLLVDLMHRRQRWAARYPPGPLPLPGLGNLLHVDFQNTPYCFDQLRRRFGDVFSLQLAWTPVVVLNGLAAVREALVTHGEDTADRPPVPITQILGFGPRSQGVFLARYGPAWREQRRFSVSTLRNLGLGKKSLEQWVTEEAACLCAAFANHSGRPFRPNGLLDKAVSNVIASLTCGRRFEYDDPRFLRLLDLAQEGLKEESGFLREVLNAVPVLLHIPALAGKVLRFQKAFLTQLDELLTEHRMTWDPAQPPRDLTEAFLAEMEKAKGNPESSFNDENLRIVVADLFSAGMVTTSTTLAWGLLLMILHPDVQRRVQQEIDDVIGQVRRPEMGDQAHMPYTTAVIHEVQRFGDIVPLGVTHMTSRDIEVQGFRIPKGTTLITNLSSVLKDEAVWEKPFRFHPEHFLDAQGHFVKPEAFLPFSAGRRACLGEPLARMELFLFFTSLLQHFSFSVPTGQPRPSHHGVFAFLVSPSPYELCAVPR

[6] = biological target: CYP2C19 (Homo sapiens, UniProt P33261); assay: CYP inhibition screening, CYP2C19; format: in vitro ADME
Chain of CYP2C19 (P33261 whole entry): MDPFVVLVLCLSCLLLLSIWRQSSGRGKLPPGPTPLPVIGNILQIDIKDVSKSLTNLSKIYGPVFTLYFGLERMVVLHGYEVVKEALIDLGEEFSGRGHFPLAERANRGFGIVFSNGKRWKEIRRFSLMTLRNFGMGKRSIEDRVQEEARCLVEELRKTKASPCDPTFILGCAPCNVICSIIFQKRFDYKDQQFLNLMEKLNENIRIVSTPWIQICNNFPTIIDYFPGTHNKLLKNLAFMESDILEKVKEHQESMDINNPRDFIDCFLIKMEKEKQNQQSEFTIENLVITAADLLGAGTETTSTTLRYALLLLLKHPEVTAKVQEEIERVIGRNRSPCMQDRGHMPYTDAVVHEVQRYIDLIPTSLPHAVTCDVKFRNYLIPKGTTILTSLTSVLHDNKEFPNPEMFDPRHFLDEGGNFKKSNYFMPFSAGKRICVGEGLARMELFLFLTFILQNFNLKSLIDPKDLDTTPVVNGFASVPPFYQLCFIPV

[7] = biological target: T1, CYP1A2 (Homo sapiens, UniProt P05177); assay: CYP inhibition screening, CYP1A2; format: in vitro ADME
T1 sequence (P05177 1-516): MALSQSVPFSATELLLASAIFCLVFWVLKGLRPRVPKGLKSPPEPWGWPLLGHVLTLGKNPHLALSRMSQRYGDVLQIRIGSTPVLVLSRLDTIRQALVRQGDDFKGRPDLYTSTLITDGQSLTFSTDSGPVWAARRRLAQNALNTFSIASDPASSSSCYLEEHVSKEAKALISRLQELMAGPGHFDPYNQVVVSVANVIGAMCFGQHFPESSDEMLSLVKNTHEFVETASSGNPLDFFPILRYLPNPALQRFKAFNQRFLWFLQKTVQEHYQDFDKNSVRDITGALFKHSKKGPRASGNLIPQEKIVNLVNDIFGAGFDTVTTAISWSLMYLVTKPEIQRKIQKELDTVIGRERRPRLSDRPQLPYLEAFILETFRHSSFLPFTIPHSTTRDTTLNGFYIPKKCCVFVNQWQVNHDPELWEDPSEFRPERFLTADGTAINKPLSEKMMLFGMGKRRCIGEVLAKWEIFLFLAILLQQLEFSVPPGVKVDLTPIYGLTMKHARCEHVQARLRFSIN

[8] = system: AEP; assay: AEP activity in OGD-treated primary neurons; format: cell-based; settings: 0.1 μM or 1.0 μM compound, 5 μM Cbz-Ala-Ala-Asn-AMC
Experimental: (§1) A. AEP activity, measured in primary neuronal cultures with 5 μM Cbz-Ala-Ala-Asn-AMC (x-axis denotes neurons were treated with 0.1 μM or 1.0 μM specified compound). B. Caspase activity, measured in primary neuronal cultures with 5 μM Ac-Asp-Glu-Val-Asp-AMC. C. Cathepsin activity, measured in primary neuronal cultures with 5 μM D-Val-Leu-Lys-AMC. D. Inhibition of APP cleavage. Lysates of primary cortical neurons pre-incubated with compounds for 30 min, underwent OGD for 4 hrs, were reperfused for 18 hrs (normoxia neurons remained at normoxic conditions). E. APP can be cleaved in a dose-dependent manner. Lysates of primary cortical neurons pre-incubated with compounds for 30 min, underwent OGD for 4 hrs, were reperfused for 18 hrs (normoxia neurons remained at normoxic conditions).
Depriving cells of oxygen and glucose is a cellular model that is employed to trigger acidosis in cultured cells. The efficacy of the compounds in a cellular model of oxygen-glucose deprivation (OGD) was determined in an effort to mimic the effects of stroke in primary cultured neurons. As a result of depriving neurons of oxygen and glucose-containing medium, AEP activity was doubled (FIG. 7A, ‘DMSO-Norm’ compared to ‘DMSO-OGD’), while Caspase-3 and Cathepsin activities remained relatively unchanged. […]

[9] = system: amyloid precursor protein (APP) cleavage; assay: APP cleavage in OGD-treated primary cortical neurons; format: cell-based
Experimental: as §1
Depriving cells of oxygen and glucose is a cellular model that is employed to trigger acidosis in cultured cells. The efficacy of the compounds in a cellular model of oxygen-glucose deprivation (OGD) was determined in an effort to mimic the effects of stroke in primary cultured neurons. As a result of depriving neurons of oxygen and glucose-containing medium, AEP activity was doubled (FIG. 7A, ‘DMSO-Norm’ compared to ‘DMSO-OGD’), while Caspase-3 and Cathepsin activities remained relatively unchanged. […] Cleavage of APP is observed in response to only DMSO treatment (FIG. 7D, lane 2), and it appears that upon the treatment of 1 μM of compounds 10, 11, and 12, and just 0.1 μM of compound s31, 38 and 64, the cleavage was blocked, presumably due to AEP inhibition.

[10] = system: Caco-2 monolayer; assay: Caco-2 monolayer permeability screen; settings: Table 1
Experimental: To explore the in vitro ADME profiles of the compounds, additional tests were conducted.

[11] = Human liver microsomal stability screen; settings: Human liver microsomes
[12] = Mouse liver microsomal stability screen; settings: Mouse liver microsomes
[13] = biological target: T2, AEP (Homo sapiens, UniProt Q99538); assay: IC50 assay with purified recombinant AEP; format: biochemical; settings: purified active AEP; read-out: IC50 toward AEP
T2 construct: tested with purified active AEP, IC50 values for the top 8 candidates were found
T2 sequence (Q99538 18-323 limits assumed): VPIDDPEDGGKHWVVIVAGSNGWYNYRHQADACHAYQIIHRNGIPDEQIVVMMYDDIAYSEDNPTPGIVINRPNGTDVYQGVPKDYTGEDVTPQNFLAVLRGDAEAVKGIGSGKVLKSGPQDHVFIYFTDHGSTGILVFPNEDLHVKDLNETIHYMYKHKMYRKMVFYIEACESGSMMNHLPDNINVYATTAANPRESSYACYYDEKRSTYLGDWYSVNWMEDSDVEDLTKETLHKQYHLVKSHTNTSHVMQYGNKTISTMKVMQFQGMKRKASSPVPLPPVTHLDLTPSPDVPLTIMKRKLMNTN
Experimental: Purified recombinant enzyme was incubated with various concentrations of inhibitor in appropriate assay buffers in the presence of increasing concentrations of inhibitor. The formation of fluorescent product was monitored in duplicate reactions and the data was fit to appropriate equations to calculate the IC50 values.
To identify small-molecule inhibitors of AEP, a high-throughput screen was designed in conjunction with the Emory Chemical Biology Discovery Center. The screen incorporated mouse kidney lysates to assay a 54,384 compound library. […] Additional structural analysis and grouping allowed the compounds to be sorted into 8 distinct backbone families. […] The specificity of the compounds was also determined using four major cysteine proteases (FIG. 2).
Various concentrations of the appropriate compound were incubated with AEP reaction buffer (50 mM Sodium Citrate pH 5.5, 0.1% CHAPS, 60 mM Na2HPO4, 1 mM EDTA, final pH 6.0) and peptide substrate, 10 μM Cbz-Ala-Ala-Asn-AMC (Bachem). The reaction was initiated upon addition of 50 nM AEP and fluorescent product formation was monitored over 15 min. […] Data were analyzed with GraFit version 5.0.11 software package.

[14] = biological target: Cathepsin-L (Homo sapiens, UniProt P07711); assay: Specificity assay against Cathepsin-L; format: biochemical
Chain of Cathepsin-L (P07711 114-333, species assumed): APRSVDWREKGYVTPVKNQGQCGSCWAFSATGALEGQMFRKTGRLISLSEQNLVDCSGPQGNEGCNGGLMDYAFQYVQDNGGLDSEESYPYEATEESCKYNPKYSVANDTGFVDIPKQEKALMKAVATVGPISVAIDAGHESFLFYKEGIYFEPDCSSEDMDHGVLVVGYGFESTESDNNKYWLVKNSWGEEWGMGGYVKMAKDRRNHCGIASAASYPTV

[15] = biological target: T3, endogenous AEP in human B lymphoblastoid pala cells (Homo sapiens, UniProt Q99538); assay: AEP inhibition in intact Pala cells; format: cell-based; settings: 2 hrs incubation, residual enzymatic activity in lysate
T3 construct: human B lymphoblastoid pala cells, which are rich in endogenous AEP; endogenous in cells; host or cells: human B lymphoblastoid Pala cells
T3 sequence (Q99538 18-323): T2 sequence (Q99538 18-323 limits assumed)
Experimental: The cells were incubated with inhibitors for 2 hrs then cells washed, harvested and lysed and the residual enzymatic activity was determined. Lysate was normalized by Bradford assay and the experiment was performed in triplicate and the mean results and SEM were plotted.
In an attempt to assess the activity of the compounds in intact cells, the compounds were incubated with human B lymphoblastoid pala cells, which are rich in endogenous AEP and have been used for inhibiting AEP in cellular assay.

[16] = biological target: T2, AEP; assay: DTT / L-cysteine reversibility of AEP inhibition; format: biochemical; settings: 10 mM DTT or L-cysteine added after 15 min
Experimental: AEP was reacted with specified inhibitor, after 15 min 10 mM DTT or L-cysteine was added to the reaction and the fluorescent signal was read for an additional 15 min. At the end of the second 15 min incubation, the percentage of product formed in the presence of each compound was determined in comparison to the DMSO control reaction.
Although it is not intended that embodiments of this disclosure be limited by any particular mechanism, to gain additional insight into the mechanism utilized by the inhibitors for abrogation of AEP activity, their reversibility in the presence of free thiols was determined. The addition of a strong reducing agent, such as DTT, or a weaker reducing agent, L-cysteine, to an inhibited reaction can be used to out-compete the inhibitory agent and restore catalytic activity to an enzyme with an active-site thiol residue. Here, a similar approach was used by adding a reducing agent, either DTT or L-cysteine, to a reaction, in which AEP had been incubated with a specified inhibitor, in an attempt to reverse the effects of the inhibitor. […] For compounds BB1 and 38, this increase in enzymatic activity may be due to the reduction of a disulfide linkage between the inhibitor and the enzyme, since these compounds contain thiols. Compound 10 contains a thiocyanate and may undergoes nucleophilic attack by the enzyme's active-site thiolate to form a thioimidate enzyme-inhibitor complex. Under acidic conditions, this complex is reducible by either a strong reducing agent, such as DTT, or the weaker L-cysteine.

[17] = biological target: T2, AEP; assay: Inhibition kinetics assays (steady-state, Z-AAN-AMC); format: biochemical; settings: competitive inhibition
Experimental: (§2) KI values for each inhibitor were determined by global fits to the competitive inhibition equation. C. Time course inactivation assays were used to generate progress curves, depicting product formation as a function of time. […] E. Time course inactivation assays were used to generate progress curves, depicting product formation as a function of time. Pseudo first-order rate constants were obtained at each concentration of compound BB1. F. Re-plot of the pseudo first-order rate constants, kobs, vs. the concentration of compound BB1.
(§3) A. Michaelis-Menten plots displaying competitive inhibition of AEP. The inhibition constant, K1, was determined from the globally fit data. B. Double reciprocal Lineweaver-Burk plots also displaying competitive inhibition. C. […] DC. A plot of the corrected kobs values obtained from each curve in (B) versus the concentration of compound 38, which enabled the calculation of the second-order rate constant, kinact/KI to be determined to measure the potency of the inhibitor.
To determine the inhibition constants and the mechanism by which compound 38 inhibits AEP, the steady-state kinetic parameters for the hydrolysis of the peptide substrate, Z-AAN-AMC, were determined in the absence or presence of increasing concentrations of inhibitor. In these assays, specified concentrations of the inhibitor were pre-incubated with substrate for 10 min at 37° C., then 50 nM AEP was added to initiate the reaction, which was quenched after 10 min. […]
In the equations, Kii is the intercept Ki, and Kis is the slope Ki. The mode of the inhibition induced by the compounds on AEP was determined by the best fit of the data to equations 1-4. […]

[18] = biological target: T2, AEP; assay: Time course inactivation assays; format: biochemical
Experimental: as §2, §3
Progress curves were generated by incubating 5 μM Z-AAN-AMC and the specified concentration of inhibitor in assay buffer at 37° C. for 10 min. The reaction was initiated by the addition of 50 nM AEP and quenched after 10 min. The concentration of the product was determined from an AMC standard curve and the data was fit by nonlinear regression. Since the curves were nonlinear, they were fit to equation 5, using the GraFit version 5.0.11 software package, [Product]=vi(1−e^−kobs.app*t)/kobs.app (eq 5), where vi is the initial velocity, kobs.app is the apparent pseudo-first order rate constant for inactivation, and t is time. Equation 6, kobs=[…] (eq 6), was used to correct the apparent pseudo-first-order inactivation rate constants, obtained from this analysis, for substrate concentration and the pseudo-first-order inactivation rate constants, i.e. kobs, thus obtained, were plotted against the tested inhibitor concentrations. […]

Chain of CYP3A4 (P08684 whole entry): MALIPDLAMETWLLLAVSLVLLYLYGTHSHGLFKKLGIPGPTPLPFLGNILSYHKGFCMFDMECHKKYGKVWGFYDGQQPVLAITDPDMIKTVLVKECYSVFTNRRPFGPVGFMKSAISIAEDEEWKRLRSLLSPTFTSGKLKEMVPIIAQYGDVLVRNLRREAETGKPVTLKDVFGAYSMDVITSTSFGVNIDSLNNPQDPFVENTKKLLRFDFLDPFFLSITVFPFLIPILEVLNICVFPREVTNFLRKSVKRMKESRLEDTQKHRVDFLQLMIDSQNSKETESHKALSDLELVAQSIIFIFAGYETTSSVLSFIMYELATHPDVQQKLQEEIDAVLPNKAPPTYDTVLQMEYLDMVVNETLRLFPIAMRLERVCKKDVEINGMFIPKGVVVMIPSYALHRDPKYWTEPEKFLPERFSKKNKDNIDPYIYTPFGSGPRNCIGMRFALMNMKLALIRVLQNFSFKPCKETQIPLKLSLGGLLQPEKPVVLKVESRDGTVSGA

SMILES: Cc1cccc(NCc2ccc(O)c3ncccc23)c1C [Compound 12]
- Pe [1]: <LLOQ
- CYP3A4-Midazolam inhibition ([2]; 3 μM): −2.5%
- CYP3A4-Midazolam inhibition ([2]; 10 μM): −2.5%
- CYP3A-Testosterone inhibition ([3]; 3 μM): 14.2%
- CYP3A-Testosterone inhibition ([3]; 10 μM): 27.6%
- CYP2C9 inhibition ([4]; 3 μM): 4.3%
- CYP2C9 inhibition ([4]; 10 μM): −2.7%
- CYP2D6 inhibition ([5]; 3 μM): 2.9%
- CYP2D6 inhibition ([5]; 10 μM): −2.6%
- CYP2C19 inhibition ([6]; 3 μM): 13.4%
- CYP2C19 inhibition ([6]; 10 μM): 29.4%
- CYP1A2 inhibition ([7]; 3 μM): 28.4%
- CYP1A2 inhibition ([7]; 10 μM): 44.5%
- AEP activity in OGD neurons [8]: slight decrease
- APP cleavage after OGD ([9]; 1 μM compound): blocked
- APP cleavage after OGD, dose dependence ([9]; FIG. 7E): dose-dependent decrease
- A −>B Papp [10]: 1.4 10^−6 cm · s^−1
- B −> A Papp [10]: 3.7 10^−6 cm · s^−1
- RE [10]: 2.7
- Mean Remaining Parent (NADPH-free) [11]: 1%
- Mean Remaining Parent (with NADPH) ([11]; 30 min): 1%
- Mean Remaining Parent (NADPH-free) [12]: 0%
- Mean Remaining Parent (with NADPH) [12]: 1%

SMILES: Sc1nnc(Nc2ccccc2)s1 [Compound BB1]
- IC50 [13]: ~130 nM
- selectivity for AEP over Cathepsin-L [14]: about 38 fold
- IC50 in intact Pala cells [15]: slightly larger IC50 values
- AEP activity after addition of reducing agent (reversibility) [16]: regained a substantial amount of activity
- inhibition constants in words [17]: nanomolar-range
- second-order rate constant, kinact/KI [18]: 3.3e+06 min⁻¹ M⁻¹
